Experimental data reported in patent publication US4515793A, “Phenylpiperazines which are useful in the treatment of schistosomiasis” (Edna McConnell Clark Foundation, priority 1983, dated 1985).
Read-outs that look alike come from different tables or passages of the source.

Test system: S. mansoni
Experiment: antischistosomal activity in mice (live worm burden, single oral dose)
Assay type: in vivo, S. mansoni (host: CD1 white female mice)
Conditions: Schistosoma mansoni, read-out: % Reduction Live Worm Burden; for inhibition in vivo at 160 mg/kg: mice (footnote, 125 mg/kg column)
Procedure: Tests were conducted to determine the antischistosomal activity in mice and monkeys. The results of the mice tests are reported in Tables 1 to 4 along with the chemical identifications of the compounds synthesized and tested.
The mice tests were conducted as follows:
A. Preinfection Procedures: Purina Laboratory chow (Ralston-Purina) and water were given ad libitum. All mice were housed in hanging stainless steel cages, without bedding, five per cage. They were kept in a ward with an ambient temperature of 75° F. and a relative humidity of 50-55%. Therapeutic treatment was given on Day 40 post-infection.
B. Experimental Procedures: CD1 white female mice were exposed by the tail immersion method for 30 minutes to 80 individually counted S. mansoni cercariae (WRAIR laboratory strain). The cercariae were obtained from pools of no less than 25 Biophalaria glabrata snails. Each experiment consisted of 118 mice divided into infected/water treated and infected/vehicle-treated controls, and infected/drug-treated groups (two dose levels) for six compounds. Groups of 12 mice each were treated with a compound synthesized and provided by the Warner-Lambert Company, Ann Arbor, Mich. at two dose levels. At the same time, five mice were sacrificed to establish worm burdens as infection controls. Three weeks after treatment, all remaining mice were sacrificed and perfused. Gross pathology (liver and intestines) was noted and graded (0 to +3). Worm burdens were determined and the sex of the worms recorded. Following perfusions the liver and intestines were removed and examined for the presence of […] or dead worms. […] Drugs were administered orally in Emulphor EL.
C. Drug Treatment: Treatment consisted of a single oral dose. Each drug was give initially at two dose levels, 40 mg/kg and 125 mg/kg, SID×1.
D. Criteria Used to Evaluate Therapeutic Effectiveness:
Evaluation of activity was determined by examination of the animals at 23 to 28 days after treatment. The schistosomes remaining alive after treatment were counted in the perfusates of the hepatic portal system and in press preparation of the livers. In the same preparations, the relative numbers of dead and/or encapsulated (i.e., worms may or may not be dead) parasites and the relative degree of pathology were ascertained. The efficacy of each treatment was that percentage of the control infection represented by the difference between numbers of parasites recovered from control (H2 O+vehicle) and treated animals. Thus, % efficacy is: [formula]

[1] = 40 mg/kg, single oral dose, mice
[2] = 125 mg/kg, single oral dose, mice

Structure (SMILES) | inhibition in vivo at 40 mg/kg [1] [%] | inhibition in vivo at 125 mg/kg [2] [%] | inhibition in vivo at 20 mg/kg (single oral dose, mice) [%] | inhibition in vivo at 160 mg/kg (single oral dose) [%] | inhibition in vivo at 40 mg/kg [%] | inhibition in vivo at 125 mg/kg [%]
O=C(CN1CCN(c2ccc(CO)c(Cl)c2)CC1)c1ccc(Cl)cc1 [Cpd. 1] | 42 | 67 |  |  |  | 
O=C(CN1CCN(c2ccc(CO)c(Cl)c2)CC1)c1ccc(F)cc1 [Cpd. 2] | 19 | 61 |  |  |  | 
O=C(CN1CCN(c2ccc(CO)c(Cl)c2)CC1)c1ccc(Cl)cc1Cl [Cpd. 3] | 81 | 94 | 62 |  |  | 
O=C(CN1CCN(c2ccc(CO)c(Cl)c2)CC1)c1ccc(S(=O)(=O)N2CCCCC2)cc1 [Cpd. 4] | -10 | 66 |  |  |  | 
O=C(CN1CCN(c2ccc(CO)c(Cl)c2)CC1)c1ccc([N+](=O)[O-])cc1 [Cpd. 5] | 74 | 98 |  |  |  | 
O=C(CN1CCN(c2ccc(CO)c(Cl)c2)CC1)c1ccc(I)cc1 [Cpd. 6] | 62 | 83 |  |  |  | 
O=C(CN1CCN(c2ccc(CO)c(Cl)c2)CC1)c1cccc([N+](=O)[O-])c1 [Cpd. 12, 2-[4-[3-chloro-4-(hydroxymethyl)phenyl]-1-piperazinyl]-1(3-nitrophenyl)ethanone] | 31 | 73 |  |  |  | 
O=C(CN1CCN(c2ccc(CO)c(Cl)c2)CC1)c1ccc(Cl)c([N+](=O)[O-])c1 [Cpd. 14] | 56 |  |  | 99 |  | 
Nc1cccc(C(=O)CN2CCN(c3ccc(CO)c(Cl)c3)CC2)c1 [Cpd. 25, 2-[4-[3-Chloro-4-(hydroxymethyl)phenyl]-1-piperazinyl]-1-(3-aminophenyl)-ethanone] | -11 | 46 |  |  |  | 
CSc1ccc(C(=O)CCN2CCN(c3ccc(CO)c(Cl)c3)CC2)cc1 [Cpd. 31] | 73 | 93 |  |  |  | 
CS(=O)(=O)c1ccc(C(=O)CCN2CCN(c3ccc(CO)c(Cl)c3)CC2)cc1 [Cpd. 32] | 84 | 91 | 43 |  |  | 
O=C(CCN1CCN(c2ccc(CO)c(Cl)c2)CC1)c1ccc(Cl)c([N+](=O)[O-])c1 [Cpd. 35] | 79 | 98 |  |  |  | 
Nc1cc(C(=O)CCN2CCN(c3ccc(CO)c(Cl)c3)CC2)ccc1Cl [Cpd. 37] | 83 | 95 | 81 |  |  | 
O=C(CCN1CCN(c2ccc(CO)c(Cl)c2)CC1)c1ccco1 [Cpd. 57] | 85 | 98 | 60 |  |  | 
O=C(CCCN1CCN(c2ccc(CO)c(Cl)c2)CC1)c1cccs1 [Cpd. 58, 4-[4-[3-Chloro-4-(hydroxymethyl)phenyl]-1-piperazinyl]-1-(2-thienyl)-1-butanone] | 20 | 77 |  |  |  | 
O=C(CCCN1CCN(c2ccc(CO)c(Cl)c2)CC1)c1ccc(Cl)cc1 [Cpd. 59, 1-(4-Chlorophenyl)-4-[4-[3-chloro-4-(hydroxymethyl)phenyl]-1-piperazinyl]-1-butanone] | 30 | 68 |  |  |  | 
CC(O)(CN1CCN(c2ccc(CO)c(Cl)c2)CC1)c1ccc(Cl)cc1 (stereo not shown) [Cpd. 61] | 88 | 96 | 68 |  |  | 
O=C(CN1CCN(c2ccc(CO)c(Cl)c2)CC1)c1ccc(C(=O)Oc2ccccc2)cc1 [compound 7] | -20 | 0 |  |  |  | 
COc1ccc(C(=O)CN2CCN(c3ccc(CO)c(Cl)c3)CC2)c(OC)c1OC [compound 9] | 13 | 30 |  |  |  | 
COc1cc(C(=O)CN2CCN(c3ccc(CO)c(Cl)c3)CC2)cc(OC)c1OC [compound 10] | -23 |  |  | 13 |  | 
CC(C)(C)c1ccc(C(=O)CN2CCN(c3ccc(CO)c(Cl)c3)CC2)cc1 [compound 11] | 16 |  |  | 59 |  | 
O=C(CN1CCN(c2ccc(CO)c(Cl)c2)CC1)c1cc(Cl)c(Cl)cc1Cl [compound 13] | 86 | 98 | 53 |  |  | 
O=C(CN1CCN(c2ccc(CO)c(Cl)c2)CC1)c1ccc(C(F)(F)F)cc1 [compound 15] | 43 | 79 |  |  |  | 

Structure (SMILES) | inhibition in vivo at 40 mg/kg [1] [%] | inhibition in vivo at 125 mg/kg [2] [%] | inhibition in vivo at 20 mg/kg (single oral dose, mice) [%] | inhibition in vivo at 160 mg/kg (single oral dose) [%] | inhibition in vivo at 40 mg/kg [%] | inhibition in vivo at 125 mg/kg [%]
O=C(CN1CCN(c2ccc(CO)c(Cl)c2)CC1)c1cc(Cl)cc(Cl)c1 [compound 16] | 64 | 89 |  |  |  | 
Cc1cc(C)c(C(=O)CN2CCN(c3ccc(CO)c(Cl)c3)CC2)cc1C [compound 17] | 29 |  |  | 71 |  | 
O=C(CN1CCN(c2ccc(CO)c(Cl)c2)CC1)c1ccc(Cl)cc1O [compound 18] | 5 |  |  | 26 |  | 
O=C(CN1CCN(c2ccc(CO)c(Cl)c2)CC1)c1ccc2ccccc2c1 [compound 19] | -37 | 17 |  |  |  | 
O=C(CN1CCN(c2ccc(CO)c(Cl)c2)CC1)c1cc(Cl)ccc1Cl [compound 20] | 65 |  | 72 | 99 |  | 
Cc1cc(C)c(C(=O)CN2CCN(c3ccc(CO)c(Cl)c3)CC2)c(C)c1 [compound 21] | 27 | 78 |  |  |  | 
O=C1c2ccccc2CCC1N1CCN(c2ccc(CO)c(Cl)c2)CC1 (stereo not shown) [compound 22] |  |  |  |  | 73 | 87
N#Cc1ccc(C(=O)CN2CCN(c3ccc(CO)c(Cl)c3)CC2)cc1 [compound 23] | 40 | 90 |  |  |  | 
O=C(CN1CCN(c2ccc(CO)c(Cl)c2)CC1)c1cccc2ccccc12 [compound 24] | 3 | 64 |  |  |  | 
Nc1cc(C(=O)CN2CCN(c3ccc(CO)c(Cl)c3)CC2)ccc1Cl [compound 26] | -12 | 45 |  |  |  | 
O=C(CN1CCN(c2ccc(CO)c(Cl)c2)CC1)c1cccc(Cl)c1 [compound 27] | 64 | 83 |  |  |  | 
O=C(CCN1CCN(c2ccc(CO)c(Cl)c2)CC1)c1ccccc1 [compound 29] | 69 | 89 |  |  |  | 
Cc1ccc(C(=O)CCN2CCN(c3ccc(CO)c(Cl)c3)CC2)cc1 [compound 30] | 75 | 96 |  |  |  | 
O=C(CCN1CCN(c2ccc(CO)c(Cl)c2)CC1)c1ccc(C2CCCCC2)cc1 [compound 33] | 79 | 93 |  |  |  | 
COc1ccc(C(=O)CCN2CCN(c3ccc(CO)c(Cl)c3)CC2)cc1 [compound 34] | 39 | 93 |  |  |  | 
O=C(CCN1CCN(c2ccc(CO)c(Cl)c2)CC1)c1ccc2ccccc2c1 [compound 36] | 82 | 95 | 75 |  |  | 
C[S+]([O-])c1ccc(C(=O)CCN2CCN(c3ccc(CO)c(Cl)c3)CC2)cc1 (stereo not shown) [compound 38] | 73 | 91 |  |  |  | 
O=C(CCN1CCN(c2ccc(CO)c(Cl)c2)CC1)c1ccc(Cl)cc1Cl [compound 39] | 86 | 94 | 70 |  |  | 
O=C(CCN1CCN(c2ccc(CO)c(Cl)c2)CC1)c1ccc(F)cc1F [compound 40] | 86 | 99 | 71 |  |  | 
O=C(CCN1CCN(c2ccc(CO)c(Cl)c2)CC1)c1ccc(Cl)c(Cl)c1Cl [compound 41] | 83 | 96 | 82 |  |  | 
O=C(CCN1CCN(c2ccc(CO)c(Cl)c2)CC1)c1ccc(Br)cc1 [compound 42] | 84 | 98 | 82 |  |  | 
O=C(CCN1CCN(c2ccc(CO)c(Cl)c2)CC1)c1cc(Cl)ccc1Cl [compound 43] | 80 | 98 | 84 |  |  | 
O=C(CCN1CCN(c2ccc(CO)c(Cl)c2)CC1)c1ccc(-c2ccccc2)cc1 [compound 44] | 89 | 97 | 69 |  |  | 
